From patent US10660933B2, “Compositions and methods for inhibition of bacterial infections in human endocervix” (priority 2015, dated 2020)

How the values were obtained:
E-cadherin = E-cadherin distribution at the apical junction of Ng-inoculated polarized T84 cells; format: cell-based, human; conditions: polarized T84, Ng 6 h; ML-7 10 μM, 2APB 10 μM, Y27632 10 μM
Text: Ng-induced junction disassembly requires NMII activation and Ca^2+ flux but is suppressed by Opa. The linkage between the efficiency of Ng penetration into the epithelium with Ng induced epithelial exfoliation and apical junction disruption shown here and previously implicate Ng induced junction disruption as an underlying cause of epithelial exfoliation. To test this hypothesis, we determined whether Opa expression and the MLCK and Ca^2+ inhibitors, which all inhibited Ng induced epithelial exfoliation, also prevent Ng from disrupting the apical junction. The structural integrity of the apical junction was evaluated by analyzing the distribution of E-cadherin using immunofluorescence (IFM) and 3D-CFM and quantifying the fluorescence intensity ratio (FIR) of E-cadherin at the cytoplasm to that at the apical junction. In polarized T84 cells that were not inoculated with Ng, E-cadherin staining was primarily localized at the apical junction (FIG. 4A, top panels). […]
Immunofluorescence analysis of polarized epithelial cells. […] Cells were analyzed by CFM. […] Epithelial exfoliation will be quantified using xz images as described for the tissue explants. The distribution of E-cadherin and pMLC was quantitatively analyzed by measuring the FIR at the apical junctional to the cytoplasmic area (from xy images) or at the apical to lateral surface area (from xz images) in individual cells.

[1] = test system: phosphorylated myosin light chain (pMLC); assay: pMLC redistribution in Ng-inoculated human endocervical tissue explants; format: cell-based; conditions: MS11ΔOpa-inoculated endocervical tissue explants, 24 h
Protocol: To explore the possibility of that Ng induced NMII redistribution occurs in vivo, we incubated human endocervical tissue explants with MS11ΔOpa for 24 h. Cryo-sections of the endocervical tissue were stained for pMLC, Ng and nuclei. In addition to its apical junction localization, pMLC was concentrated at the basal surface of the endocervical epithelial cells contacting with the basal membrane (FIG. 6A, upper panels). When incubated with MS11ΔOpa, there was a redistribution of pMLC from the basal to apical surface, resulting in a significant higher apical:lateral FIR in Ng inoculated tissue explants than that in no Ng control (FIG. 6), similar to what we observed in polarized T84 (FIGS. 5A and 5B) and HEC-1-B cells (FIG. 10). Furthermore, pMLC at the apical surface of the endocervical epithelial cells also concentrated at Ng adherent sites (FIG. 6A, second row, white arrows), but not at the membrane of cells neighboring exfoliating cells (FIG. 6A, second row, orange arrows). These observations confirm that Ng increase the relative amount of activated NMII at the apical surface of the endocervical epithelial cells in human tissue explants. […]
(§1) Immunofluorescence analysis of human endocervical tissue explants. […] The tissue was fixed, embedded in gelatin, cryopreserved, sectioned crossing the apical and basolateral surfaces of the epithelium, stained for ZO1 (BD Bioscience), pMLC (Cell Signaling Technology, Beverly, Mass.), and Ng (51) by specific antibodies, and nuclei by DAPI (Life Technologies, Carlsbad, Calif.), and analyzed using CFM (Zeiss LSM 710, Carl Zeiss Microscopy LLC, Oberkochen, Germany). […]
To quantify epithelial exfoliation, the number of Ng associated cells localized on the top of the epithelial monolayer (exfoliated) and the total number of Ng associated epithelial cells was counted by visual inspection in each randomly acquired image, to determine the percentage of exfoliated cells. To estimate the level of Ng penetration into the subepithelium, the number of non-exfoliated epithelial cells (in clearly visible epithelial monolayers) with basal Ng staining and the total number of Ng associated epithelial cells were visually counted to calculate the percentage of infected epithelial cells with Ng penetration into the basolateral side. To evaluate the disruption of the apical junction, the number of Ng associated epithelial cells that lost continuously apical staining of the junctional protein ZO1 and the total number of Ng associated epithelial cells were visually counted to calculate the percentage of Ng associated epithelial cells with apical junction disassembly. […]

[2] = test system: human endocervical tissue explants; assay: Ng-induced epithelial exfoliation of human endocervical tissue explants (3D-CFM); format: cell-based; conditions: MS11ΔOpa, 24 h; ML-7 10 μM, PIK 100 μM
Protocol: Human endocervical tissue explants. The tissue explants were cultured as previously described. Endocervical tissues were obtained from patients undergoing voluntary hysterectomies and received within 24 h post-surgery. Samples were cut into ˜2.5 cm (L)×0.6 cm (W)×0.3 cm (H) pieces, incubated in CMRL-1066 (GIBCO, Gaithersburg, Md.) plus antibiotics for 24 h, and then switched to antibiotic-free media for 24 h.
as §1
To quantify epithelial exfoliation, the number of Ng associated cells localized on the top of the epithelial monolayer (exfoliated) and the total number of Ng associated epithelial cells was counted by visual inspection in each randomly acquired image, to determine the percentage of exfoliated cells. […] To quantify the redistribution of pMLC, the fluorescence intensity ratios (FIR) of pMLC staining at the apical to lateral in individual epithelial cells were determined using average FI as previously described.

Row | Compound | punctuate cytoplasmic staining and cytoplasm:junction FIR of E-cadherin (E-cadherin) | pMLC accumulation at Ng adherent sites [1] | apical:lateral FIR of pMLC ([1]; ML-7 10 μM, PIK 100 μM) | epithelial exfoliation of human endocervical tissue explants [2]
1 | NCCOB(c1ccccc1)c1ccccc1 [2APB] | decreased the punctuate staining of E-cadherin in the cytoplasm and the cytoplasm:junction FIR of E-cadherin to or below the control level |  |  | 
2 | O=S(=O)(c1cccc2c(I)cccc12)N1CCCNCC1 [ML-7] | decreased the punctuate staining of E-cadherin in the cytoplasm and the cytoplasm:junction FIR of E-cadherin to or below the control level | significantly reduced | significantly reduced | decreased the epithelial exfoliation of human endocervical tissue explants to the basal level
